Source: US20080045535A1, “Prokineticin 2 receptor antagonists” (priority 2005, published 2008)
pIC50: −log10 of the molar value. Where “and” joins values, the source holds several entries; their conditions need not be identical. Equal values may be shown once.

Target: T1, HEK 293 GPR73 (prokineticin 1 receptor) expressing cells (Homo sapiens, UniProt Q8TCW9)
T1 construct: expressed in transfected cells; host or cells: HEK 293
Assay: PK1 functional assay: screening for PK1 antagonists on the FLIPR (calcium fluorescence)
Assay type: cell-based
Conditions: HEK 293 GPR73 cells; for pIC50: PK1 ligand at EC50, multiple values = repeat tests, read-out: Ca^2+ Mobilization IC50; for Ca^2+ Mobilization % Inh @10 μM: compound at 10 μM; for Ca^2+ Mobilization % Inh @10 μM / inhibition at 10 µM: multiple values = repeat tests; for inhibition at 10 µM: HEK293, compound at 10 μM, read-out: Ca^2+ Mobilization % Inh @10 μM
Outline: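 HEK 293 cells expressing GPR73 were loaded with Calcium Plus Dye for 30 min at 37 C, then read for calcium fluorescence on FLIPR. Values were baseline-subtracted and expressed as percent of maximal control; percent inhibition is 100 minus that, and IC50 was fitted from it.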

T1 sequence (Q8TCW9 whole entry): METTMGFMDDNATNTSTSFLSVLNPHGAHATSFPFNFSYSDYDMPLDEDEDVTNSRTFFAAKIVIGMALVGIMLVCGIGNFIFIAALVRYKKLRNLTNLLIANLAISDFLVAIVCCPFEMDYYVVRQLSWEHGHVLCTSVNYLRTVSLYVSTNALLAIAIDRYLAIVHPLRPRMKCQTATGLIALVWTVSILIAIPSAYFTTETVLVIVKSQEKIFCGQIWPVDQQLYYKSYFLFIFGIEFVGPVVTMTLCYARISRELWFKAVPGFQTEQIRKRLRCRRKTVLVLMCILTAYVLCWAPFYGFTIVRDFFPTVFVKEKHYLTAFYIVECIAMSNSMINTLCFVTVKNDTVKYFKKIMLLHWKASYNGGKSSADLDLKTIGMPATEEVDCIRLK

Compound	pIC50	Ca^2+ Mobilization % Inh @10 μM	inhibition at 10 µM	Ca^2+ Mobilization % Inh @10 μM (10 µM)
COc1ccc(Cn2c(NCCN(C(=N)N)C(=O)c3ccccc3)nc(=O)n(Cc3ccc(F)cc3)c2=O)cc1 [Cpd 134, N-Benzoyl-N-{2-[5-(4-fluoro-benzyl)-1-(4-methoxy-benzyl)-4,6-dioxo-1,4,5,6-tetrahydro-[1,3,5]triazin-2-ylamino]-ethyl}-guanidine]	7.72 and 7.55	97, 97%	–	–
COc1ccc(Cn2c(NCCNC(=N)Nc3ncccn3)nc(=O)n(Cc3ccc(F)cc3)c2=O)cc1 [Cpd 135]	7.89 and 7.62	–	100%	94%
COc1ccc(Cn2c(N[C@@H](C)[C@H](C)NC(=N)N)nc(=O)n(Cc3ccc(F)cc3)c2=O)cc1 [Cpd 136]	< 5.00	–	50%	–
COc1ccc(Cn2c(N[C@H](C)[C@@H](C)NC(=N)N)nc(=O)n(Cc3ccc(F)cc3)c2=O)cc1 [Cpd 137]	7.82 and 7.51	–	101%	–
COc1ccc(Cn2c(NCCNC(=N)Nc3nc4c(c(C(F)(F)F)n3)CCCC4)nc(=O)n(Cc3ccc(F)cc3)c2=O)cc1 [Cpd 138]	5.87	–	70%	–
COc1ccc(Cn2c(NCCNC(=N)Nc3ccc(C)cn3)nc(=O)n(Cc3ccc(F)cc3)c2=O)cc1 [Cpd 139]	7.74	–	95%	–
COc1ccc(Cn2c(NCCNC(=N)N3CCOCC3)nc(=O)n(Cc3ccc(F)cc3)c2=O)cc1 [Cpd 140]	6.34	–	89%	–
N=C(N)NCCNc1nc(=O)n(Cc2ccc(Cl)cc2)c(=O)n1Cc1ccco1 [Cpd 141]	5.74	–	73%	–
COc1ccc(Cn2c(NCCCCCNC(=N)N)nc(=O)n(Cc3ccc(Cl)cc3)c2=O)cc1 [Cpd 142]	6.49	–	90%	–
COc1ccc(Cn2c(=O)nc(NCCNC(=N)N)n(Cc3ccc(O)cc3)c2=O)cc1 [Cpd 143, N-{2-[1-(4-Hydroxy-benzyl)-5-(4-methoxy-benzyl)-4,6-dioxo-1,4,5,6-tetrahydro-[1,3,5]triazin-2-ylamino]-ethyl}-guanidine]	8.22 and 7.57	–	100%	–
COc1ccc(Cn2c(NCCCCCCNC(=N)N)nc(=O)n(Cc3ccc(Cl)cc3)c2=O)cc1 [Cpd 144]	5.88	–	77%	–
COc1ccc(CCn2c(=O)nc(NCCNC(=N)N)n(Cc3ccc(OC)cc3)c2=O)cc1 [Cpd 145]	6.34	–	86%	–
COc1ccc(CCCn2c(=O)nc(NCCNC(=N)N)n(Cc3ccc(OC)cc3)c2=O)cc1 [Cpd 146]	6.17	–	87%	–
COC(=O)c1ccc(Cn2c(NCCNC(=N)N)nc(=O)n(Cc3ccc(Cl)c(Cl)c3)c2=O)cc1 [Cpd 147]	–	–	82%	–
CCCCOc1ccc(Cn2c(NCCNC(=N)N)nc(=O)n(Cc3ccccc3)c2=O)cc1 [Cpd 148]	< 5.00	–	41%	–
NC(N)=NCCNc1nc(=O)n(Cc2ccc(Cl)cc2)c(=O)n1Cc1ccccc1 [Cpd 149]	5.32	64%	–	–
N=C(N)NCCNc1nc(=O)n(Cc2ccc(Cl)cc2)c(=O)n1Cc1ccoc1 [Cpd 150]	5.73	71%	–	–
COc1ccc(Cn2c(NCCNC(=N)NC(C)=O)nc(=O)n(Cc3ccc(F)cc3)c2=O)cc1 [Cpd 151]	8.52	–	99%	–
C=CCNC(=N)NCCNc1nc(=O)n(Cc2ccc(F)cc2)c(=O)n1Cc1ccc(OC)cc1 [Cpd 152]	8.05	–	97%	–
COc1ccc(Cn2c(NCCNC(=N)NC(C)C)nc(=O)n(Cc3ccc(F)cc3)c2=O)cc1 [Cpd 153]	7.89	–	99%	–
CCCNC(=N)NCCNc1nc(=O)n(Cc2ccc(F)cc2)c(=O)n1Cc1ccc(OC)cc1 [Cpd 154]	8.52 and 8.22	–	99%	98%
CCNC(=N)NCCNc1nc(=O)n(Cc2ccc(F)cc2)c(=O)n1Cc1ccc(OC)cc1 [Cpd 155]	7.80	–	99%	–
CNC(=N)NCCNc1nc(=O)n(Cc2ccc(F)cc2)c(=O)n1Cc1ccc(OC)cc1 [Cpd 156]	8.40 and 8.15	–	102%	99%
COc1ccc(Cn2c(C(=O)NCCNC(=N)N)cc(=O)n(Cc3ccc(OC)cc3)c2=O)cc1 [Cpd 157, 1,3-Bis-(4-methoxy-benzyl)-2,6-dioxo-1,2,3,6-tetrahydro-pyrimidine-4-carboxylic acid (2-guanidino-ethyl)-amide]	6.71	–	92%	–
COc1ccc(Cn2c(OCCNC(=N)N)cc(=O)n(Cc3ccc(OC)cc3)c2=O)cc1 [Cpd 158, N-{2-[1,3-Bis-(4-methoxy-benzyl)-2,6-dioxo-1,2,3,6-tetrahydro-pyrimidin-4-yloxy]-ethyl}-guanidine]	6.60	–	93%	–
COc1ccc(Cn2c(SCCNC(=N)N)cc(=O)n(Cc3ccc(OC)cc3)c2=O)cc1 [Cpd 159, N-{2-[1,3-Bis-(4-methoxy-benzyl)-2,6-dioxo-1,2,3,6-tetrahydro-pyrimidin-4-ylsulfanyl]-ethyl}-guanidine]	7.89	–	98%	–
COc1ccc(Cn2c(CCCNC(=N)N)cc(=O)n(Cc3ccc(OC)cc3)c2=O)cc1 [Cpd 160, N-{3-[1,3-Bis-(4-methoxy-benzyl)-2,6-dioxo-1,2,3,6-tetrahydro-pyrimidin-4-yl]-propyl}guanidine]	6.21	–	89%	–
N-{2-[5-Benzyl-1-(4-methoxy-benzyl)-4,6-dioxo-1,4,5,6-tetrahydro-[1,3,5]triazin-2-ylamino]-ethyl}-oxyguanidine [Cpd 27]	5.71	55%	–	–
